# Source: ChEMBL document CHEMBL1201862, “PubChem BioAssay data set” (2004)
# Calls of active or inactive are those of the source.
# What was measured:
# [1] = biological target: T1, Corticotropin-releasing factor receptor 2/Corticotropin-releasing factor-binding protein (Homo sapiens, UniProt P24387+Q13324); experiment: activators of CRF receptor 2 with binding protein – uHTS hits, confirmation (AID 602473); type: functional; conditions: read-out: EC50_Mean
# T1 sequence (Q13324 whole entry): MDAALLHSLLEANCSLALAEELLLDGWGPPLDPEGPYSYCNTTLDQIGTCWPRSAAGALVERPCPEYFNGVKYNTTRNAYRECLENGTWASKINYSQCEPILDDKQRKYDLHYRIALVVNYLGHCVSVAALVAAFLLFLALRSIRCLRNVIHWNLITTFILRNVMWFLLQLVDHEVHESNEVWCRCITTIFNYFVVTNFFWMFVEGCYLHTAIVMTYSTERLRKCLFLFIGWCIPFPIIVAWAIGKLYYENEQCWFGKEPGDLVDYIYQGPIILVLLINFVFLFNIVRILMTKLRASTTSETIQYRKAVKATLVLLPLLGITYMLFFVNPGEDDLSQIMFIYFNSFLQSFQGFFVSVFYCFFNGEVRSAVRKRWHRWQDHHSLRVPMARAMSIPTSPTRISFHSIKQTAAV
# T1 sequence (P24387 whole entry): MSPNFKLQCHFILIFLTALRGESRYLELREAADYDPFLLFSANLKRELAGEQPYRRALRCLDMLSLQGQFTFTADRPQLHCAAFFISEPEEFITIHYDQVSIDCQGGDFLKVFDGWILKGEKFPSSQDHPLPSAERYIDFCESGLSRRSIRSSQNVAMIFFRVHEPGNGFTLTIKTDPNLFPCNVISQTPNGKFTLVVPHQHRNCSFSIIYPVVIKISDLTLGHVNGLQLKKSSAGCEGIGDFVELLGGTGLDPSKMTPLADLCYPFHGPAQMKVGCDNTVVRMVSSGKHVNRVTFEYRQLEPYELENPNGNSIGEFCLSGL
# [2] = tested on: Streptococcus sp. 'group A'; experiment: growth inhibition of control SK(-) GAS strain, dose response, counter-screen for streptokinase expression inhibitor project, luminescence, kanamycin, BacTiterGlo, confirmation (AID 1900); type: functional, organism-based
# [3] = biological target: Albumin (Bos taurus, UniProt P02769); experiment: Counterscreen for inhibitors of T-cell receptor (TCR)-CD3 interaction: Fluorescence-based biochemical high throughput dose response assay to identify inhibitors of T-cell receptor (TCR)-CD3 interaction using a TAMRA-labeled BSA probe.; type: functional
# [4] = biological target: T2, Streptokinase A (Streptococcus pyogenes serotype M1, UniProt P10520); experiment: S. pyogenes streptokinase expression inhibitors, potency, dose response, plasminogen activation absorbance, OD405 (AID 1914); type: functional, Streptococcus pyogenes M1 GAS;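 note: secreted streptokinase activity via plasminogen activation per viability signal from cell pellet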
# T2 sequence (P10520 whole entry): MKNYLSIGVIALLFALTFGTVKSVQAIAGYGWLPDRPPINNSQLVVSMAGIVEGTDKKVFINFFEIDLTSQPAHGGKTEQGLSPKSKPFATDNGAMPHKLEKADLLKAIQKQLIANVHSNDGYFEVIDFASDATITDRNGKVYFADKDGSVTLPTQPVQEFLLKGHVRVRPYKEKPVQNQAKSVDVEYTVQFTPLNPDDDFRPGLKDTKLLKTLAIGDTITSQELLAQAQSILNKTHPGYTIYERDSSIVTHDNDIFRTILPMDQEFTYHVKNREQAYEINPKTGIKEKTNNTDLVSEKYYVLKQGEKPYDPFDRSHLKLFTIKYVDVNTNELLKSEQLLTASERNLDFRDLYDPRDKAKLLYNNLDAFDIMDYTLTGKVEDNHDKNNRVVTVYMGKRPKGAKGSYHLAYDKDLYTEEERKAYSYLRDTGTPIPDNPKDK
# [5] = tested on: Streptococcus; experiment: Group A Streptococcus viability loss, dose response, counter-screen for streptokinase expression inhibitor project, luminescence, BacTiterGlo (AID 1915); type: functional, organism-based;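 note: potency for reduction of bacterial viability or growth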
# [6] = biological target: NACHT, LRR and PYD domains-containing protein 3 (Homo sapiens, UniProt Q96P20); experiment: NALP3 inhibitors in yeast, dose response, luminescent (AID 488799); type: functional
# [7] = biological target: Hexokinase (Trypanosoma brucei, UniProt Q38C41); experiment: Confirmation assay for inhibitors of Trypanosoma brucei hexokinase 1-Analogue-first series. [Related pubchem assays (depositor defined):AID1430, AID1632, AID2516, AID2560, AID2579, AID2600, AID449725, AID492951]; type: functional
# [8] = viability loss in BJeLR (HRASV12) cells, primary screen, Ras selective lethality project, cell-based, Alamar Blue, dry powder (AID 493045); type: functional
# [9] = cytotoxicity in BJeH fibroblasts, dose response, counter-screen for Ras selective lethality project, BJeH cells, dry powder (AID 493054); type: functional, cell-based
# [10] = cytotoxicity in BJeHLT fibroblasts, dose response, counter-screen for Ras selective lethality project, BJeHLT cells, dry powder (AID 493052); type: functional, cell-based; conditions: Homo sapiens
# [11] = viability loss in HRASV12 DRD fibroblasts, dose response, cell-based, DRD BJ fibroblasts, dry powder (AID 493049); type: functional
# [12] = biological target: T3, Cannabinoid receptor 1 (Homo sapiens, UniProt P21554); experiment: SAR analysis of antagonists of the Cannabinoid Receptor 1 using an Image-Based Assay - Set 3. [Related pubchem assays (depositor defined):AID1961, AID1965]; type: functional
# [13] = biological target: T4, G-protein coupled receptor 35 (Homo sapiens, UniProt Q9HC97); experiment: SAR analysis of Agonists of the GPR35 Receptor using an Image-Based Assay - Set 3. [Related pubchem assays (depositor defined):AID1961, AID1965]; type: functional
# [14] = biological target: T5, Cannabinoid receptor 2 (Homo sapiens, UniProt P34972); experiment: SAR analysis of agonists of the Cannabinoid Receptor 2 using an Image-Based Assay - Set 2. [Related pubchem assays (depositor defined):AID1961, AID1965]; type: functional
# [15] = biological target: G-protein coupled receptor 55 (Homo sapiens, UniProt Q9Y2T6); experiment: SAR analysis of selective Agonists of GPR55 using an Image-Based Assay - Set 2. [Related pubchem assays (depositor defined):AID1961, AID1965]; type: functional
# [16] = biological target: T3, Cannabinoid receptor 1; experiment: SAR analysis of agonists of the Cannabinoid Receptor 1 using an Image-Based Assay - Set 3. [Related pubchem assays (depositor defined):AID1961, AID1965]; type: functional
# [17] = biological target: T5, Cannabinoid receptor 2; experiment: SAR analysis of antagonists of the Cannabinoid Receptor 2 using an Image-Based Assay - Set 2. [Related pubchem assays (depositor defined):AID1961, AID1965]; type: functional
# [18] = biological target: T4, G-protein coupled receptor 35; experiment: SAR analysis of Antagonists of the GPR35 Receptor using an Image-Based Assay - Set 4. [Related pubchem assays (depositor defined):[…]]; type: functional
# [19] = biological target: DNA dC->dU-editing enzyme APOBEC-3A (Homo sapiens, UniProt P31941); experiment: Dose Response confirmation of small molecule APOBEC3A DNA Deaminase Inhibitors via a fluorescence-based single-stranded DNA deaminase assay. [Related pubchem assays (depositor defined):AID493011, AID493024]; type: functional
# [20] = biological target: DNA dC->dU-editing enzyme APOBEC-3G (Homo sapiens, UniProt Q9HC16); type: functional;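 note: Dose-response counterscreen measuring inhibition of APOBEC3G DNA deaminase activity, run while confirming APOBEC3A inhibitors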
# [21] = biological target: T6, Caspase-3 (Homo sapiens, UniProt P42574); experiment: procaspase-3 activators, dose response, biochemical, absorbance (AID 489014)
# T6 sequence (P42574 whole entry): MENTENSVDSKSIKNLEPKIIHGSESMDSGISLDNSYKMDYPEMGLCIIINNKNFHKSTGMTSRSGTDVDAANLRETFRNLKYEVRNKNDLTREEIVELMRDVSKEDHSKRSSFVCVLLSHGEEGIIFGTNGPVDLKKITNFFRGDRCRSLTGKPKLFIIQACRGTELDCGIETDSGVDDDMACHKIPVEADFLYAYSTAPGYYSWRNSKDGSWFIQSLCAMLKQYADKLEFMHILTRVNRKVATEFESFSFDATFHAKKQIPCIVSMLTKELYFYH
# [22] = biological target: T7, Caspase-7 (Homo sapiens, UniProt P55210); experiment: procaspase-7 activators, dose response, counter-screen for procaspase-3 activator project, biochemical, absorbance (AID 489013)
# T7 sequence (P55210 whole entry): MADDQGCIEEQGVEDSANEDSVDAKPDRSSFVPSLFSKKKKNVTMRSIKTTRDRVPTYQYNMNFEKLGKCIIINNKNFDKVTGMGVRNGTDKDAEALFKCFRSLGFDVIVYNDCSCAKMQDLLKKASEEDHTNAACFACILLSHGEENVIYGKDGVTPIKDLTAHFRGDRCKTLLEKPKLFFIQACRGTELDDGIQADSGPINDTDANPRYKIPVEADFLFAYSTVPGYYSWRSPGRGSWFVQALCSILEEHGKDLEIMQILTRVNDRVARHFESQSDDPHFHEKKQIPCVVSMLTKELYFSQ
# [23] = biological target: T8, Dual specificity protein phosphatase 3 (Homo sapiens, UniProt P51452); experiment: SAR VHR1 Fluorescent Assay for In Vitro dose response studies. [Related pubchem assays (depositor defined):AID1654, AID1661, AID1878, AID1992, AID2004, AID2070, AID2085]; type: functional
# [24] = biological target: T8, Dual specificity protein phosphatase 3; experiment: SAR VHR1 absorbance Assay for In Vitro dose response studies. [Related pubchem assays (depositor defined):AID1654, AID1661, AID1878, AID1992, AID2004]
# [25] = biological target: T9, Dual specificity protein phosphatase 6 (Rattus norvegicus, UniProt Q64346); type: functional;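 note: confirmatory in vitro dose-response testing of MKP-3 inhibition; recombinant His-tagged MKP-3 made in E. coli BL21 with OMFP substrate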
# T9 sequence (Q64346 whole entry): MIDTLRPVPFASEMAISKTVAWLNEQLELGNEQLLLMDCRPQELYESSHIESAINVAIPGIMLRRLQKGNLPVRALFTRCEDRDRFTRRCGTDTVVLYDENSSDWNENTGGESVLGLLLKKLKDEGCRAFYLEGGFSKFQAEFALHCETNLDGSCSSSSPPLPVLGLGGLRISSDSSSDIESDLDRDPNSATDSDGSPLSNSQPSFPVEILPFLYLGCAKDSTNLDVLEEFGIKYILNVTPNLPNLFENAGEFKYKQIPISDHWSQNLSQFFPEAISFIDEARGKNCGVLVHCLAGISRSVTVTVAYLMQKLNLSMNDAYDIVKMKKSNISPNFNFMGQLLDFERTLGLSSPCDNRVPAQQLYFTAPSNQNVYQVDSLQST
# [26] = biological target: T8, Dual specificity protein phosphatase 3; experiment: SAR VHR1 Fluorescent Assay for In Vitro dose response studies Set 2. [Related pubchem assays (depositor defined):AID1654, AID1661, AID1878]; type: functional
# [27] = biological target: T10, Tyrosine-protein phosphatase non-receptor type 7 (Homo sapiens, UniProt P35236); experiment: redox-dependent HePTP inhibition, mechanism study, biochemical, fluorescence (AID 2068); type: functional
# T10 sequence (P35236 whole entry): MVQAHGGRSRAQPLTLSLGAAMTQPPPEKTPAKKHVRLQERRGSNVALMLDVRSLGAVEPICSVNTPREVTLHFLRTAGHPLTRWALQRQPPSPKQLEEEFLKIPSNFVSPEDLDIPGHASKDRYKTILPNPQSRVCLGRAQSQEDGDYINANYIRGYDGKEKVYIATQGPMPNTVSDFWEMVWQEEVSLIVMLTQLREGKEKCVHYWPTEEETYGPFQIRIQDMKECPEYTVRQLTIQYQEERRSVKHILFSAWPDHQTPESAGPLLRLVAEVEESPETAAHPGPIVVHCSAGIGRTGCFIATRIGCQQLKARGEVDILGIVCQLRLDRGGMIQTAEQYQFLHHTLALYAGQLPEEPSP
# T8 sequence (P51452 whole entry): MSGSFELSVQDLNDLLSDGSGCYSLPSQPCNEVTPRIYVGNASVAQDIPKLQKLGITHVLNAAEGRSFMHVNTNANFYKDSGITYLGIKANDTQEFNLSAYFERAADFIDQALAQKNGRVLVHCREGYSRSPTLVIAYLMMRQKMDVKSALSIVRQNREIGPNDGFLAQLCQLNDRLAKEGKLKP
# T4 sequence (Q9HC97 whole entry): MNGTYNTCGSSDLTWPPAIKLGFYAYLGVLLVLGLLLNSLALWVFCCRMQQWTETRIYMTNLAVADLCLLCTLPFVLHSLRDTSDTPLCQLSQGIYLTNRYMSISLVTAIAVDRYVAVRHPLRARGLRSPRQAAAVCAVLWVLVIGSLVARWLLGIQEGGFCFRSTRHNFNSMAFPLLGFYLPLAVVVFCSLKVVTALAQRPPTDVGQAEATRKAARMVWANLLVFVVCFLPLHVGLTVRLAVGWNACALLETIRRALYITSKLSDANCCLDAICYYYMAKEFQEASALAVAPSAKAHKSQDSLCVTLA
# T5 sequence (P34972 whole entry): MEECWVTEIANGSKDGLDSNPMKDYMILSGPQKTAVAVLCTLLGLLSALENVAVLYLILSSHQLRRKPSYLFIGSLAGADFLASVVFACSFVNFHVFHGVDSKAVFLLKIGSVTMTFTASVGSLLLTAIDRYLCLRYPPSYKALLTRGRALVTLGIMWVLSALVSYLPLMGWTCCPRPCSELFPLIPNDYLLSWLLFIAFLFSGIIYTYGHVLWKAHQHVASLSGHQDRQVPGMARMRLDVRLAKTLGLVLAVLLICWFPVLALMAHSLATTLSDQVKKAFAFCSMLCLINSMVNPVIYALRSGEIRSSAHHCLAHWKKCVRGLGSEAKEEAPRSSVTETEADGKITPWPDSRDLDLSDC
# T3 sequence (P21554 whole entry): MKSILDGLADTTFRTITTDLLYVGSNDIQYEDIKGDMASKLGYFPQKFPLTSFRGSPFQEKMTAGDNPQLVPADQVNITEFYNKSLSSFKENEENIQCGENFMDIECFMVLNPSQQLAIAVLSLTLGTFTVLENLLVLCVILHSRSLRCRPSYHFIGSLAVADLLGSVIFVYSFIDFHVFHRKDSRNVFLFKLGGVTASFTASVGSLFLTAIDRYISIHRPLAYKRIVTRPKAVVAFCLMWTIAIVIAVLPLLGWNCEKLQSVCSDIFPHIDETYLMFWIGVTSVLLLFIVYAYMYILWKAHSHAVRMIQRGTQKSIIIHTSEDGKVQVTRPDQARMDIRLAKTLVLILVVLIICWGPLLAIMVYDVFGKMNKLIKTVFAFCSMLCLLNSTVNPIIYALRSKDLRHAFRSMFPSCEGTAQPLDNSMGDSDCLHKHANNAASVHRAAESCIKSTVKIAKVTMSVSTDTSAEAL
# Sequence of Hexokinase (Q38C41 whole entry): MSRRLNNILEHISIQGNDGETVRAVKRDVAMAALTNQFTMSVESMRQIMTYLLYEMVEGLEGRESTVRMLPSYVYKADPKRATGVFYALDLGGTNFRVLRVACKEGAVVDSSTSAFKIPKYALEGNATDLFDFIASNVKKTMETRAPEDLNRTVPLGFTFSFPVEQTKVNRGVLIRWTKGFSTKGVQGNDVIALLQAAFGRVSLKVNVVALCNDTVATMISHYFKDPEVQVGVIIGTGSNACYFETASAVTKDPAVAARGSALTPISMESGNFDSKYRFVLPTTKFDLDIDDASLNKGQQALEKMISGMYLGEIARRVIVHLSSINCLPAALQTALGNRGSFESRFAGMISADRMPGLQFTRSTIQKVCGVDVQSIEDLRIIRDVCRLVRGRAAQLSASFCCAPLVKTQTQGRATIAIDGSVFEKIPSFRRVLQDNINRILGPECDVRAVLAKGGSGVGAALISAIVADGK
# Sequence of DNA dC->dU-editing enzyme APOBEC-3A (P31941 whole entry): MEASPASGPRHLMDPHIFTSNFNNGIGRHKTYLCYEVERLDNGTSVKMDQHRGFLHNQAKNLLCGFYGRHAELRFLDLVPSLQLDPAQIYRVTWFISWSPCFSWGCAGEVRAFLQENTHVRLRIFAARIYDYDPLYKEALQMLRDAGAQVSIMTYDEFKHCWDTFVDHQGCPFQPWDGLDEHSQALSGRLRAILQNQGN
# Sequence of DNA dC->dU-editing enzyme APOBEC-3G (Q9HC16 whole entry): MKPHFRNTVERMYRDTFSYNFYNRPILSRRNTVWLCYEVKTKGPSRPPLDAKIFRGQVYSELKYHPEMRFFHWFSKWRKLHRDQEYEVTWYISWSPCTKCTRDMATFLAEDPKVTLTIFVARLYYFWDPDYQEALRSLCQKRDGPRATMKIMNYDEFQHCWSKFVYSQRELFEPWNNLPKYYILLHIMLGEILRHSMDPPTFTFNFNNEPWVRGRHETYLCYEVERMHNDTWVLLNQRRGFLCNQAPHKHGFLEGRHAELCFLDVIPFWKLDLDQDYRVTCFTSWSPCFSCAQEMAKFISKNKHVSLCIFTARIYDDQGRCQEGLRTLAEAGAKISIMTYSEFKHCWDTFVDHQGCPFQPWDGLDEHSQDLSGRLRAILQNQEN
# Sequence of G-protein coupled receptor 55 (Q9Y2T6 whole entry): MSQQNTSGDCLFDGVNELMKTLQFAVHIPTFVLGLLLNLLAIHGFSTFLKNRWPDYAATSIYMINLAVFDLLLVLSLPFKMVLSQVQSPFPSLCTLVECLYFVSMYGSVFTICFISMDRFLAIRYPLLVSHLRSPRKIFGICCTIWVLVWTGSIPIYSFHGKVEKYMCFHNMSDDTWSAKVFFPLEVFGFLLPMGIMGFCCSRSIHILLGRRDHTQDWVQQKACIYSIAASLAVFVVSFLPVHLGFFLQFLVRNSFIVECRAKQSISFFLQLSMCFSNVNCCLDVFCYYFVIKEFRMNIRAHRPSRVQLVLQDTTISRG
# Sequence of Albumin (P02769 whole entry): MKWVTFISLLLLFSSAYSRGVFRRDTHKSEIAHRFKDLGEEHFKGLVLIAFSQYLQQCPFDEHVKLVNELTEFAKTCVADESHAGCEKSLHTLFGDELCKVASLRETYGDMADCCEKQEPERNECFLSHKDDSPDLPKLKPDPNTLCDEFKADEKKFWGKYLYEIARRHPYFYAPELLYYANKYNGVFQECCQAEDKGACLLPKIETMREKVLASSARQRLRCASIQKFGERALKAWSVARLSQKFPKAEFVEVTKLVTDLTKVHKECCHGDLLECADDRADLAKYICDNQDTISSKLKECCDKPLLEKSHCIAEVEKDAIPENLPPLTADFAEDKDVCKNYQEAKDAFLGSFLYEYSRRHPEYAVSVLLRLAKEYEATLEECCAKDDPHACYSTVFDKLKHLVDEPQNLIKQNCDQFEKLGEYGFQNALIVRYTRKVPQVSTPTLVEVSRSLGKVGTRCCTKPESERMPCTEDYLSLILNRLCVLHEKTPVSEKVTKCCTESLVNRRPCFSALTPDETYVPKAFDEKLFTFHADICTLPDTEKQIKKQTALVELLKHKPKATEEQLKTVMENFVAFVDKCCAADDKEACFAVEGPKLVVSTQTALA
# Sequence of NACHT, LRR and PYD domains-containing protein 3 (Q96P20 whole entry, the tested form may be a part): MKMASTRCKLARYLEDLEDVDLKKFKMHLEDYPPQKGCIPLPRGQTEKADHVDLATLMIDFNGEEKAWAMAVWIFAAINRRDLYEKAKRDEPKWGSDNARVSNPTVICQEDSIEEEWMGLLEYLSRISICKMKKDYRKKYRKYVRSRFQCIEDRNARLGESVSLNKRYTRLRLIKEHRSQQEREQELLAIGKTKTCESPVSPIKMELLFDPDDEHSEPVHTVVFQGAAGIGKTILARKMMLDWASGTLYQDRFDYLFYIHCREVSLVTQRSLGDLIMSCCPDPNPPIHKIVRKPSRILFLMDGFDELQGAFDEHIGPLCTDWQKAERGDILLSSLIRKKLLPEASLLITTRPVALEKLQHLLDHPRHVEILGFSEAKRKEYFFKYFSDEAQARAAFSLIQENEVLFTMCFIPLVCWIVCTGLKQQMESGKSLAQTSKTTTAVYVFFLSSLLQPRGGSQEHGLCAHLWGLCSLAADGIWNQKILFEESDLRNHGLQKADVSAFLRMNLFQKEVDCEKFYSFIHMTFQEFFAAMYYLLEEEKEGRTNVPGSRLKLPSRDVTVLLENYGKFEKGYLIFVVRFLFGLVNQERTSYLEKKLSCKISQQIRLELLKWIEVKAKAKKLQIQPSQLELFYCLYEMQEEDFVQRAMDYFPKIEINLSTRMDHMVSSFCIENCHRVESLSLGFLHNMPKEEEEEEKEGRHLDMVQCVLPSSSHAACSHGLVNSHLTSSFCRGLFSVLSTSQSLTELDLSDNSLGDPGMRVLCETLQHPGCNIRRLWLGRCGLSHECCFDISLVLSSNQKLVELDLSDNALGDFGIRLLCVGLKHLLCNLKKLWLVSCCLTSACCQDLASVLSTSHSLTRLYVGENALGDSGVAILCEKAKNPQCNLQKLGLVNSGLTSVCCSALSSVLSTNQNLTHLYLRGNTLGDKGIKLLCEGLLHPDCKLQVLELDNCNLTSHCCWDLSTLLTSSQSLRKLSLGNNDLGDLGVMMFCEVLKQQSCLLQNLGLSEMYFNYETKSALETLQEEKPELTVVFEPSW
structure (smiles),measurement,setting,value
Cn1c(=O)c(C(=O)NNC(=O)c2ccccc2F)c(O)c2ccccc21,EC50,[1],5.36 µM (active)
same,EC50,[2],4.65 µM (active)
same,IC50,[3],> 94.1 µM (inactive)
same,EC50,[4],> 150 µM (not active)
same,EC50,[5],18.6 µM (active)
same,IC50,[6],1.94 µM (active)
N#Cc1ccc(Oc2ccc3c(c2)B(O)OC3)cc1,IC50,[7],> 25 µM (inactive)
COc1ccc(N(C(=O)CCl)C(C)(C)C(=O)NCCc2ccccc2)cc1Cl,AC50,[8],58 nM (active)
same,AC50,[9],254 nM (active)
same,AC50,[10],127 nM (active)
same,AC50,[11],60 nM (active)
CCCc1cc(C(=O)Nc2cc(S(=O)(=O)N3CCOCC3)ccc2OC)sc1C,IC50,[12],7.68 µM (active)
same,EC50,[13],> 32 µM (inactive)
same,EC50,[14],> 32 µM (inactive)
same,EC50,[15],> 32 µM (inactive)
same,EC50,[16],> 32 µM (inactive)
same,IC50,[17],> 32 µM (inactive)
same,IC50,[18],> 32 µM (inactive)
COc1ccccc1OC(C)C(=O)N1CCC(Cc2ccccc2)CC1 (stereo unspecified),IC50,[19],7.11 µM (active)
same,IC50,[20],6.99 µM (active)
COc1ccc2c(c1)cc(C)c1nnc(SCC(=O)Nc3nc(C)cs3)n12,IC50,[12],> 32 µM (inactive)
same,EC50,[13],> 32 µM (inactive)
same,EC50,[14],> 32 µM (inactive)
same,EC50,[15],> 32 µM (inactive)
same,EC50,[16],> 32 µM (inactive)
same,IC50,[17],> 32 µM (inactive)
same,IC50,[18],> 32 µM (inactive)
CC(C)(C)c1ccc(C(=O)Nc2cc(Br)ccc2C(=O)O)cc1,IC50,[7],2.39 µM (active)
CC(NC(=O)c1cc2cc([N+](=O)[O-])ccc2oc1=O)C1CCCO1 (stereo unspecified),EC50,[21],13.4 µM (inactive)
same,EC50,[22],20.2 µM (inactive)
O=C(NCCc1ccccc1)C(c1cccs1)N(C(=O)CCl)c1cccc(Cl)c1 (stereo unspecified),AC50,[8],156 nM (active)
same,AC50,[9],544 nM (active)
same,AC50,[10],331 nM (active)
same,AC50,[11],154 nM (active)
CCN1CCN(c2ccc(S(=O)(=O)N3CCCCC3)cc2NC(=O)c2ccc(OC(F)F)cc2)CC1,IC50,[19],10.9 µM (active)
same,IC50,[20],9.05 µM (active)
NS(=O)(=O)c1cccc(C(=O)NC2CCSc3ccccc32)c1 (stereo unspecified),IC50,[23],> 100 µM (inactive)
same,IC50,[24],> 100 µM (inactive)
same,IC50,[25],> 100 µM (inactive)
same,IC50,[26],> 100 µM (inactive)
same,IC50,[27],> 100 µM (inactive)
